Measured values taken from patent publication US20250160350A1, “BIOACTIVE MOLECULES IN YOGURT” (Phytoquest Limited, priority 2022, published 2025).
Structures can show the parent of a compound that is named as a salt. Where two headings read alike, the source gives them in different places.

How the values were obtained:
[1] = test system: α-D-glucosidase Yeast; experiment: Glycosidase assay, α-D-glucosidase Yeast; assay type: biochemical; settings: negative value = activation
Description: (§1) Glycosidase assays. Most enzymes and para-nitrophenyl substrates were purchased from Sigma with the exception of human recombinant β-glucocerebrosidase (Cerezyme) obtained from Genzyme, Europe. Pure iminosugars which inhibit β-glucosidases (DMDP and calystegine B2) were used as controls. Yogurt samples were tested at 1 mg/ml. Enzymes were assayed at 27° C. in 0.1 M citric acid/0.2 M disodium hydrogen phosphate buffers at the optimum pH for the enzyme (pH 5.9 for Cerezyme). The incubation mixture consisted of 10 μL enzyme solution, 10 μL of 1 mg/mL aqueous inhibitor solution and 50 μL of the appropriate 5 mM para-nitrophenyl substrate made up in buffer at the optimum pH for the enzyme. Cerezyme was assayed against para-nitrophenyl (PNP) β-glucopyranoside. The reactions were stopped by addition of 70 μL 0.4 M glycine (pH 10.4) during the exponential phase of the reaction, which had been determined at the beginning using uninhibited assays in which water replaced inhibitor. Final absorbances were read at 405 nm using a Versamax microplate reader (Molecular Devices). Assays were performed in triplicate and the mean percentage inhibitions used. A negative value indicates enzyme activation.

[2] = test system: β-D-glucosidase almond; experiment: Glycosidase assay, β-D-glucosidase almond; assay type: biochemical; settings: negative value = activation
Description: as §1

[3] = target: T1, human recombinant β-glucocerebrosidase (Cerezyme) (Homo sapiens, UniProt P04062, R534H); experiment: β-glucocerebrosidase assay (Cerezyme/imiglucerase, PNP β-glucopyranoside, pH 5.9); assay type: biochemical; settings: for effect on β-glucocerebrosidase activity, in words: in vitro; for inhibition at 10000 µg/mL: Conc 10 mg/ml; for inhibition at 5000 µg/mL / % inhibition Cerezyme (β-glucocerebrosidase): Conc 5 mg/ml; for % inhibition glucocerebrosidase (GC) Genzyme: 0.8 mM
T1 construct: purchased Genzyme, Europe
T1 sequence (P04062 40-536 R534H): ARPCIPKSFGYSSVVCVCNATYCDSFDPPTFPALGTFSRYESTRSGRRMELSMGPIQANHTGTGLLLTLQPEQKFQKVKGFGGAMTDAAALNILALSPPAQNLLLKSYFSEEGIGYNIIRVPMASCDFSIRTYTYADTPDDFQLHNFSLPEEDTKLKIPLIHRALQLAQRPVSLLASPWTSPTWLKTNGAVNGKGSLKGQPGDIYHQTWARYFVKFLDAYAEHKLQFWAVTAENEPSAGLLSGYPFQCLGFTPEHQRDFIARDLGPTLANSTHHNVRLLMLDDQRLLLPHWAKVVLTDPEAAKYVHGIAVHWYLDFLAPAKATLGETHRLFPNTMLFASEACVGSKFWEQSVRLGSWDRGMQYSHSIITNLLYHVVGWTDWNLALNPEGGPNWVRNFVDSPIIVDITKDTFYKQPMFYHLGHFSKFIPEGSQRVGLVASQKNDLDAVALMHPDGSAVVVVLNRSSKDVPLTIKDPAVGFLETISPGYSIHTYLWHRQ
Description: An exemplary assay is-uses human recombinant imiglucerase (obtained from Genzyme, Europe) and is conducted at 27° C. in 0.1 M citric acid/0.2 M disodium hydrogen phosphate buffer at pH 5.9. The incubation mixture consists of 10 μL of enzyme solution, 10 μL of aqueous solution of test material (e.g., yogurt, yogurt extract or isolated cyclic guanidine compound) at the required concentration and 50 μL of 5 mM para-nitrophenyl (PNP) B glucopyranoside (Sigma-Aldrich) made up in buffer at pH 5.9. The reactions are stopped by addition of 70 μL 0.4 M glycine (pH 10.4) during the exponential phase of the reaction, which is previously determined using uninhibited assays in which water replaces inhibitor. Final absorbances were read at 405 nm using a Versamax microplate reader (Molecular Devices). Assays are carried out in triplicate, and the values given are means of the three replicates per assay. A negative value indicates enzyme activation.
as §1, with “The reactions were stopped by addition of 70 μL 0.4 M glycine (pH 10.4) during the exponential phase of the reaction, which had been determined at the beginning using uninhibited assays in which water replaced inhibitor.” left out
Glycosidase Assays. β-glucocerebrosidase enzyme (Human recombinant imiglucerase, obtained from Genzyme, Europe) were carried at 27° C. in 0.1 M citric acid/0.2 M disodium hydrogen phosphate buffer at pH 5.9. The incubation mixture consisted of 10 μL of enzyme solution, 10 μL of aqueous solution of extract or compound at the required concentration and 50 μL of 5 mM para-nitrophenyl (PNP) β-glucopyranoside (Sigma-Aldrich) made up in buffer at pH 5.9. […] Final absorbances were read at 405 nm using a Versamax microplate reader (Molecular Devices). Assays were carried out in triplicate and the values given are means. Results are shown as % inhibition where a negative value indicates enzyme activation.
β-glucocerebrosidase enzyme (Human recombinant imiglucerase, obtained from Genzyme, Europe) were carried at 27° C. in 0.1 M citric acid/0.2 M disodium hydrogen phosphate buffer at pH 5.9. […] Final absorbances were read at 405 nm using a Versamax microplate reader (Molecular Devices). Assays were carried out in triplicate, and the values given are means of the three replicates per assay. A negative value indicates enzyme activation.

[4] = test system: N-acetyl-β-D gluc Bovine kidney; experiment: Glycosidase assay, N-acetyl-β-D gluc Bovine kidney; assay type: biochemical; settings: negative value = activation; for % inhibition N-acetyl-β-D gluc Bovine kidney: 0.8 mM
Description: as §1

[5] = test system: α-D-glucosidase Bacillus; experiment: Glycosidase assay, α-D-glucosidase Bacillus; assay type: biochemical; settings: 0.8 mM; negative value = activation
Description: as §1

[6] = target: T2, α-D-galactosidase Green coffee (Coffea arabica, UniProt Q42656); experiment: Glycosidase assay, α-D-galactosidase Green coffee; assay type: biochemical; settings: 0.8 mM; negative value = activation
T2 construct: purchased Sigma
T2 sequence (Q42656 16-378): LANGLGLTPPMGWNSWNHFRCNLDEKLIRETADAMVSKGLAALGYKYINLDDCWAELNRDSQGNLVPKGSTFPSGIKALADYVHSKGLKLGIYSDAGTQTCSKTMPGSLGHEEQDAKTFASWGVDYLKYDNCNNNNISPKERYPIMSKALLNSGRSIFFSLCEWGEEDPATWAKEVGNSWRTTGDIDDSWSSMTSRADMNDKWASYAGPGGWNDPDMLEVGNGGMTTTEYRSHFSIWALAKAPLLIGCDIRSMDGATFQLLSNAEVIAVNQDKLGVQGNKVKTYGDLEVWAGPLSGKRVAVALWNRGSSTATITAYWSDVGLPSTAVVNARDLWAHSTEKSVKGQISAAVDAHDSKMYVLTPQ
Description: as §1

[7] = test system: β-D-galactosidase bovine liver; experiment: Glycosidase assay, β-D-galactosidase bovine liver; assay type: biochemical; settings: 0.8 mM; negative value = activation
Description: as §1

[8] = target: T3, α-D-mannosidase Jack bean (Canavalia ensiformis, UniProt C0HJB3); experiment: Glycosidase assay, α-D-mannosidase Jack bean; assay type: biochemical; settings: 0.8 mM; negative value = activation
T3 construct: purchased Sigma
T3 sequence (C0HJB3 1-981): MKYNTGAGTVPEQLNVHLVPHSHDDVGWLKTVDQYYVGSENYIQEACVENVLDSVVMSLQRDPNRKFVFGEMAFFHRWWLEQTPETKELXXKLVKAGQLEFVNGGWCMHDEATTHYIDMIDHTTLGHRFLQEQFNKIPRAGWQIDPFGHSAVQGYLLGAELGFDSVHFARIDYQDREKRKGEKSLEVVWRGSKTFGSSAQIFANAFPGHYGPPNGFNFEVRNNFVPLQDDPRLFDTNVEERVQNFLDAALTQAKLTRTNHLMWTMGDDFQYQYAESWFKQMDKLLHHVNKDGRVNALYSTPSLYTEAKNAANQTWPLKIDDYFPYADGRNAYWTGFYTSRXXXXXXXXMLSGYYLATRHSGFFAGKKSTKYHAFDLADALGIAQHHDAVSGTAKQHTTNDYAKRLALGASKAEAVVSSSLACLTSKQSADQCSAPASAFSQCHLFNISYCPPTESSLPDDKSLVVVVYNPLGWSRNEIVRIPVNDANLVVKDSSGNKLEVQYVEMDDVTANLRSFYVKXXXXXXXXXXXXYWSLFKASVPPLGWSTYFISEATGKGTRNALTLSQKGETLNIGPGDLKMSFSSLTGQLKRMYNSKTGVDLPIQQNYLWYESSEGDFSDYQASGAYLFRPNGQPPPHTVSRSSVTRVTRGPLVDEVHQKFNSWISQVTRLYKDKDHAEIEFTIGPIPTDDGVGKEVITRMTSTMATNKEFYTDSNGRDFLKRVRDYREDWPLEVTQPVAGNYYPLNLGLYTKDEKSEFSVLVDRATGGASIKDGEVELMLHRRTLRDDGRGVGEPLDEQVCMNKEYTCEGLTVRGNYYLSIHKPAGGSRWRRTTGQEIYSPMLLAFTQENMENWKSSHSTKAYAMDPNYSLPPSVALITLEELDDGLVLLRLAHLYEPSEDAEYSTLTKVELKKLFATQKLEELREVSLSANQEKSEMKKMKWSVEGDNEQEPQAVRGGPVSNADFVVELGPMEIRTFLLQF
Description: as §1

[9] = test system: β-D-mannosidase C. fimi; experiment: Glycosidase assay, β-D-mannosidase C. fimi; assay type: biochemical; settings: 0.8 mM; negative value = activation
Description: as §1

[10] = test system: N-acetyl-β-D-gluc Jack bean; experiment: Glycosidase assay, N-acetyl-β-D-gluc Jack bean; assay type: biochemical; settings: 0.8 mM; negative value = activation
Description: as §1

[11] = test system: α-D-glucosidase rat intestine; experiment: Glycosidase assay, α-D-glucosidase rat intestine; assay type: biochemical; settings: 0.8 mM; negative value = activation
Description: as §1

[12] = test system: GCase; settings: in vitro and in mice, tissue-specific (Sun et al. 2012); cited from earlier work
[13] = test system: GCase; settings: literature (Ambrosi et al. 2015); cited from earlier work
[14] = test system: GCase; settings: PD patients with and without GBA1 mutation; cited from earlier work
[15] = pH 5.9, negative value = activation

CN1C(=N)NC[C@H]1C(=O)O [Compound 1, (S)-2-imino-3-methylimidazolidine-4-carboxylic acid]
% inhibition α-D-glucosidase Yeast ([1]; 8 mM): 44% | % inhibition β-D-glucosidase almond ([2]; 8 mM): 20% | effect on β-glucocerebrosidase activity, in words [3]: strong promotion equalling that of the yogurt purified compound | effect on β-glucocerebrosidase activity, in words ([3]; listed as (S)-2-imino-3-methylimidazolidine-4-carboxylic acid): effective at promoting the enzyme activity in vitro | % inhibition N-acetyl-β-D-gluc Bovine kidney ([4]; 8 mM): 34%

C[N+](C)(C)CC(=O)O [betaine]
inhibition at 10000 µg/mL [3, 15]: 0.1%

O=C(O)/C=C/c1ccc(O)c(O)c1 [caffeic acid]
inhibition at 5000 µg/mL [3, 15]: -1.8%

O=c1cc[nH]c(=O)[nH]1 [uracil]
inhibition at 5000 µg/mL [3, 15]: 4.5%

OC[C@H]1N[C@H](CO)[C@@H](O)[C@@H]1O [DMDP]
% inhibition α-D-glucosidase Yeast ([1]; 0.8 mM): 100% | % inhibition α-D-glucosidase Bacillus [5]: 93% | % inhibition β-D-glucosidase almond ([2]; 0.8 mM): 97% | % inhibition α-D-galactosidase Green coffee [6]: 7% | % inhibition β-D-galactosidase bovine liver [7]: 99% | % inhibition glucocerebrosidase (GC) Genzyme [3, 15]: 44% | % inhibition α-D-mannosidase Jack bean [8]: 3% | % inhibition β-D-mannosidase C. fimi [9]: 93% | % inhibition N-acetyl-β-D gluc Bovine kidney [4]: −7% | % inhibition N-acetyl-β-D-gluc Jack bean [10]: −7% | % inhibition α-D-glucosidase rat intestine [11]: 77%

C[n+]1cccc(C(=O)[O-])c1 [trigonelline]
inhibition at 1000 µg/mL ([3]; Conc 1 mg/ml, pH 5.9, negative value = activation): 3.1% | inhibition at 5000 µg/mL [3, 15]: -12.6%

OC[C@H]1CNC[C@@H](O)[C@@H]1O [isofagomine]
GCase activity [12]: increase GCase activity in vitro and in mice

O=C(O)c1cccnc1 [nicotinic acid]
inhibition at 5000 µg/mL [3, 15]: -12.7%

Nc1c(Br)cc(Br)cc1CN[C@H]1CC[C@H](O)CC1 [Ambroxol hydrochloride]
GCase activity [13]: enhance GCase activity | α-syn clearance [13]: increase α-syn clearance | GCase activity in patients [14]: increased the GCase activity

O=C(/C=C/c1ccc(O)c(O)c1)O[C@@H]1C[C@](O)(C(=O)O)C[C@@H](O)[C@H]1O [chlorogenic acid]
inhibition at 5000 µg/mL [3, 15]: 57.1% | effect on β-glucocerebrosidase activity, in words [3]: inhibited the enzyme

Cn1cc(C(=O)O)ccc1=O [6-OH-trigonelline]
% inhibition Cerezyme (β-glucocerebrosidase) [3, 15]: 8.6%

Nc1ncnc2nc[nH]c12 [adenine]
inhibition at 10000 µg/mL [3, 15]: -22% | effect on β-glucocerebrosidase activity, in words [3]: some promotion activity but weaker than that seen with the yogurts

O=C(O)c1ccc(=O)[nH]c1 [6-OH-nicotinic acid]
% inhibition Cerezyme (β-glucocerebrosidase) [3, 15]: −1.4%

NC(=O)c1cccnc1 [nicotinamide]
inhibition at 5000 µg/mL [3, 15]: -11.3%

O[C@@H]1[C@@H](O)[C@H](O)[C@]2(O)CC[C@H]1N2 [Calystegine B2]
% inhibition α-D-glucosidase Yeast ([1]; 0.8 mM): 18% | % inhibition α-D-glucosidase Bacillus [5]: −5% | % inhibition β-D-glucosidase almond ([2]; 0.8 mM): 96% | % inhibition α-D-galactosidase Green coffee [6]: 99% | % inhibition β-D-galactosidase bovine liver [7]: 44% | % inhibition glucocerebrosidase (GC) Genzyme [3, 15]: 100% | % inhibition α-D-mannosidase Jack bean [8]: 8% | % inhibition β-D-mannosidase C. fimi [9]: −5% | % inhibition N-acetyl-β-D gluc Bovine kidney [4]: 0% | % inhibition N-acetyl-β-D-gluc Jack bean [10]: 0% | % inhibition α-D-glucosidase rat intestine [11]: 22%

Nc1cc[nH]c(=O)n1 [cytosine]
inhibition at 10000 µg/mL [3, 15]: -1.6%

O=c1c(O)c(-c2ccc(O)c(O)c2)oc2cc(O)cc(O)c12 [quercetin]
inhibition at 5000 µg/mL [3, 15]: 39.4% | effect on β-glucocerebrosidase activity, in words [3]: inhibited the enzyme
